Measurements reported in patent US20250134890A1, “ANTIMALARIAL HEXAHYDROPYRIMIDINE ANALOGUES” (UCB BIOPHARMA SRL, priority 2022, published 2025).
Where a name gives a salt, the structure may show the parent alone.

What follows are compounds tested on Plasmodium falciparum: 3D7 strain (assay: P. falciparum 3D7 asexual blood stage assay (SYBR green readout)). Conditions: Plasmodium falciparum, 3D7, Erythrocyte, 72 h, P. falciparum 3D7 in human erythrocytes, 72 h incubation, SYBR green fluorescence.
Format: cell-based
Description: The compounds of the present invention are potent inhibitors of the growth and propagation of the Plasmodium falciparum parasite in human blood.
The assay used to measure the effect of test compounds on a bloodstream stage of Plasmodium falciparum: 3D7 strain employs SYBR green as the readout. This is a dye that binds to double stranded deoxyribonucleic acid (DNA) with a resulting increase in fluorescence, allowing detection of P. falciparum DNA in infected erythrocytes, and thereby providing a measure of parasite growth and propagation.
Erythrocytes (A+blood) were prepared for both parasite culture and assay by washing 4 times with incomplete media (15.9 g RPMI 1640 (25 mM HEPES, L-glutamine), 1 g NaHCO3, 2 g glucose, 400 μL gentacin (500 mg/mL), 2 mL hypoxanthine solution (13.6 g/L in 0.1M NaOH pH 7.3) in 1 litre of media). The cells were centrifuged at 1800 g for 5 minutes, before decanting the supernatant and re-suspending in fresh incomplete media. On the final wash, the cells were re-suspended in complete media (incomplete media with 5 g/L AlbumaxII), and centrifuged at 1800 g for 3 minutes. This cell sediment was treated as 100% haematocrit.
P. falciparum 3D7 was cultured in erythrocytes at 5% haematocrit in complete media at 37° C. (1% O2, 3% CO2, balance N2). Cultures were split on a weekly basis to achieve a 1% parasitaemia in erythrocites at 5% haematocrit in fresh media. Culture media is replaced by fresh media every other day (2 times during the week).
On day 1, test compounds were added to assay plates using Echo dispensing technology ([…] and 20 points titration). 50 nL of each compound dilution was added to 50 μL of culture (5% haematocrit, 0.5% parasitaemia) and incubated for 72 h at 37° C. (1% O2, 3% CO2, balance N2). Final concentrations of test compounds ranged from 50,000 nM to 15 nM, in […].
On day 4, 10 μL SYBR green (Invitrogen S7563 supplied as 10,000×concentrate in DMSO) pre-diluted to 3×concentrate with Lysis buffer (20 mM Tris pH 7.9, 5% EDTA, 0.16% w/v, 1.6% TX100 v/v) was added to the cultures and incubated in the dark, overnight, at room temperature.
On day 5, fluorescent signal was measured using a BioTek plate reader (excitation 485 nm, emission 528 nm). All data were processed using IDBS ActivityBase. Raw data were converted into percent inhibition through linear regression by setting the high inhibition control (mefloquine) as 100% and the no inhibition control (DMSO) as 0%. Quality control criteria for passing plates were as follows: Z′>0.5, S:B>3, % CV(no inhibition control)<15. The formula used to calculate Z′ is: […]
All EC50 curve fitting was undertaken using the following bi-phasic two site dose response using XLfit model 300 (IDBS):
where A=100 minus the top of the upper curve 1 and the bottom of lower curve; B=Hill slope; log(C)=IC50 concentration at lower site; log(D)=IC50 concentration at upper site; x=inhibitor concentration; and y=% inhibition.
Compound `C[C@@]1(c2cccc(-c3ccc(F)cc3F)c2Cl)CC(=O)N([C@@H]2CCC(F)(F)[C@H](O)C2)C(=N)N1` (relative stereo) [Example 97, (6S)-6-[2-Chloro-3-(2,4-difluoro-phenyl)phenyl]-3-[(1R*,3R*)-4,4-difluoro-3-hydroxycyclohexyl]-2-imino-6-methylhexahydro-pyrimidin-4-one hydrochloride] has an IC50 of 280 nM.
`C[C@@]1(c2cccc(-c3ccc(C4CC4)nc3)c2Cl)CC(=O)N([C@@H]2CCC(F)(F)[C@H](O)C2)C(=N)N1` (relative stereo) [Example 98, (6S)-6-[2-Chloro-3-(6-cyclopropyl-pyridin-3-yl)phenyl]-3-[(1R*,3R*)-4,4-difluoro-3-hydroxycyclohexyl]-2-imino-6-methylhexahydro-pyrimidin-4-one hydrochloride] showed an IC50 of 297 nM.
With `C[C@@]1(c2cccc(-c3ccc(C4CC4)nc3)c2Cl)CC(=O)N([C@H]2CCC(F)(F)[C@@H](O)C2)C(=N)N1` (relative stereo) [Example 99, (6S)-6-[2-Chloro-3-(6-cyclopropyl-pyridin-3-yl)phenyl]-3-[(1S*,3S*)-4,4-difluoro-3-hydroxycyclohexyl]-2-imino-6-methylhexahydro-pyrimidin-4-one hydrochloride] the IC50 was 1960 nM.
`C[C@H]1C[C@@H](N2C(=N)N[C@](C)(c3cccc(-c4cccc(Cl)c4)c3Cl)CC2=O)CCN1` (relative stereo) [Example 100, (6S)-6-[2-Chloro-3-(3-chloro-phenyl)phenyl]-2-imino-6-methyl-3-[(2S*,4S*)-2-methylpiperidin-4-yl]hexahydropyrimidin-4-one hydrochloride] gave an IC50 of 373 nM.
Work on `C[C@@H]1C[C@H](N2C(=N)N[C@](C)(c3cccc(-c4cccc(Cl)c4)c3Cl)CC2=O)CCN1` (relative stereo) [Example 101, (6S)-6-[2-Chloro-3-(3-chloro-phenyl)phenyl]-2-imino-6-methyl-3-[(2R*,4R*)-2-methylpiperidin-4-yl]hexahydropyrimidin-4-one hydrochloride] yielded an IC50 of 392 nM.
`C[C@H]1C[C@@H](N2C(=N)N[C@](C)(c3cccc(-c4ccc(F)cc4F)c3Cl)CC2=O)CCN1` (relative stereo) [Example 102, (6S)-6-[2-Chloro-3-(2,4-difluoro-phenyl)phenyl]-2-imino-6-methyl-3-[(2S*,4S*)-2-methylpiperidin-4-yl]hexahydropyrimidin-4-one hydrochloride] gave an IC50 of 504 nM.
With `C[C@@H]1C[C@H](N2C(=N)N[C@](C)(c3cccc(-c4ccc(F)cc4F)c3Cl)CC2=O)CCN1` (relative stereo) [Example 103, (6S)-6-[2-Chloro-3-(2,4-difluoro-phenyl)phenyl]-2-imino-6-methyl-3-[(2R*,4R*)-2-methylpiperidin-4-yl]hexahydropyrimidin-4-one hydrochloride] the IC50 was 744 nM.
For `C[C@@H]1C[C@H](N2C(=N)N[C@](C)(c3cccc(-c4cccc(Cl)c4)c3Cl)CC2=O)CC[C@H]1O` (relative stereo) [Example 104, (6S)-6-[2-Chloro-3-(3-chloro-phenyl)phenyl]-3-[(1S*,3S*,4S*)-4-hydroxy-3-methylcyclohexyl]-2-imino-6-methylhexahydro-pyrimidin-4-one hydrochloride], the IC50 was 4940 nM.
`C[C@H]1C[C@@H](N2C(=N)N[C@](C)(c3cccc(-c4cccc(Cl)c4)c3Cl)CC2=O)CC[C@@H]1O` (relative stereo) [Example 105, (6S)-6-[2-Chloro-3-(3-chloro-phenyl)phenyl]-3-[(1R*,3R*,4R*)-4-hydroxy-3-methylcyclohexyl]-2-imino-6-methylhexahydro-pyrimidin-4-one hydrochloride] showed an IC50 of 1560 nM.
`C[C@H]1C[C@@H](N2C(=N)N[C@](C)(c3cccc(-c4ccc(F)cc4F)c3Cl)CC2=O)CCN1C` (relative stereo) [Example 106, (6S)-6-[2-Chloro-3-(2,4-difluoro-phenyl)phenyl]-3-[(2S*,4S*)-1,2-dimethylpiperidin-4-yl]-2-imino-6-methylhexahydropyrimidin-4-one hydrochloride] gave an IC50 of 94 nM.
